Assay results from ChEMBL document CHEMBL1157539, “Thousands of chemical starting points for antimalarial lead identification” (Nature, 2010).

Each compound was assayed on Plasmodium falciparum (assay: GSK_TCMDC: Inhibition of Plasmodium falciparum 3D7 in whole erythrocytes, using parasite LDH activity as an index of growth.). Conditions: Plasmodium falciparum, 3D7.
Type: functional, organism-based

Row | Structure (SMILES) | XC50 [nM]
1 | OC(CNCc1ccccc1OC(F)F)c1cccc(C(F)(F)F)c1 (stereo not given) | 765
2 | OC(CNCc1ccccc1OCc1ccccc1)c1cccc(I)c1 (stereo not given) | 418
3 | Cc1cccc2nc(-c3ccc(-c4cccc(CN5CCN(CC6CCCN(C)C6)CC5)c4)s3)[nH]c12 (stereo not given) | 121
4 | CSc1nccc(-c2ccc3ccnc(N)c3c2)n1 | 925
5 | CC(C)CCNCc1ccc(OCc2cccc(C(=O)Nc3ccccc3)c2)c(I)c1 | 288
6 | CN1CCC(Oc2ccc(CN3CC[C@H](NC(=O)c4cc(F)cc(F)c4)C3)c3ccccc23)C1 (stereo not given in full) | 841
7 | Cc1[nH]c2ccccc2c1C1=CCN(CC2CC2C(=O)c2ccccc2)CC1 (stereo not given) | 349
8 | O=C(Nc1ccc(OC2CCN(Cc3ccc(F)cc3)CC2)c(Cl)c1)c1ccsc1 | 717
9 | Cc1ccc(C2(O)CC3CCC(C2)N3C)cc1 (stereo not given) | 611
10 | N#Cc1ccc(-c2ccc(C(=O)NCCCCN3CCC(c4cn(CCO)c5ccccc45)CC3)cc2)cc1 | 954
11 | CCC(CO)NCC(O)Cn1c2ccc(Br)cc2c2cc(Br)ccc21 (stereo not given) | 783
12 | O=C1CCCN1CCCNCc1ccc(-c2cccc(-c3nc4cc(C(F)(F)F)ccc4[nH]3)c2)cc1 | 191
13 | CCCCN(CCCC)/C(=N/c1cccc(Cl)c1Cl)Nc1ccc(C#N)cc1O | 853
14 | COc1ccc(CNC2CCN(C)CC2)cc1-c1ccc(S(=O)(=O)NCCc2ccccn2)c(C)c1 | 1150
15 | Cc1cc(=NN=Cc2ccc(Cl)cc2)c2ccccc2[nH]1 | 787
16 | CCC(C)c1ccc(-n2c(Nc3ccccc3)nc3cc(S(N)(=O)=O)ccc32)cc1 (stereo not given) | 1060
17 | O=c1ccc2ccc(F)c3c2n1CC3CN1CCC(NCc2cccc(-c3cccs3)c2)CC1 (stereo not given) | 834
18 | O=C(Nc1ccc(N2CCC(Nc3ccccn3)CC2)cc1)c1cnc(Cl)c(Cl)c1 | 1190
19 | CC(=O)c1cc(N2CCCC2)ccc1N | 15.5
20 | CCc1sc(CN(CCCNc2cc(=O)c3ccccc3[nH]2)Cc2sc(CC)c(Br)c2-c2ccsc2)c(-c2ccsc2)c1Br | 94.6
21 | O=c1cc(NCCCN(Cc2cc3c(Cl)cc(Cl)cc3[nH]2)Cc2cc3c(Cl)cc(Cl)cc3[nH]2)[nH]c2ccccc12 | 121
22 | CC(C)CCn1c(Sc2ccc(C#N)c([N+](=O)[O-])c2)nnc1-c1ccccc1Cl | 1030
23 | Fc1cccc(COc2ccc(Nc3ncnc4ccc(-c5nnc(C(F)(F)F)o5)cc34)cc2Cl)c1 | 579
24 | COc1ccc(Cl)cc1N1CCN(CCCNC(=O)c2ccc(-c3nc4cc(Cl)c(F)cc4[nH]3)cc2)CC1 | 1060

Row | Structure (SMILES) | XC50 [nM]
25 | CNc1ccc(CNCc2cccc(-c3ccc(-c4nc5ccccc5[nH]4)cc3)c2)cc1 | 300
26 | Cc1cc(CN2CCN(CCOC(c3ccccc3)c3ccccc3)CC2)ccc1O | 935
27 | COc1ccc(-c2onc(C(F)(F)F)c2-c2cc3ccccc3o2)c(O)c1 | 863
28 | O=C(NC1CCCCC1)N(CCCn1ccnc1)Cc1csc(-c2ccc(CNCc3ccccc3)cc2)n1 | 843
29 | Oc1ccccc1CN1CCN(C(c2ccccc2)c2ccccc2)CC1 | 761
30 | Cc1ccc(-n2nc(C)c3c2NC(=O)CSC3c2ccsc2)cc1 (stereo not given) | 1010
31 | O=C(Nc1ccon1)c1cc(-c2cccnc2)nc2ccc(Br)cc12 | 744
32 | O=C(C=Cc1ccc(Cl)c(Cl)c1)NC1CCN(CCc2ccccc2)CC1 | 594
33 | COc1nc2c(N3CCN(CCNCc4ccc5c(n4)NC(=O)CO5)CC3)ccnc2cc1F | 758
34 | COc1cccc(Nc2nccc(-c3c(-c4cccc(NC(=O)c5c(F)cccc5F)c4)nn4ccccc34)n2)c1 | 178
35 | O=C(NCCN1CCCC1)c1cccc(-c2ccc(-c3nc4ccccc4[nH]3)cc2)c1 | 919
36 | CN1CCN(CCCN(Cc2ccc(-c3ccc(CNC4CCCC4)cc3)cc2)C(=O)CCC2CCCC2)CC1 | 886
37 | O=C(/C=C/c1ccc(Cl)c(Cl)c1)NCCCCN1CCCN(C(=O)Nc2ccc(F)c(Cl)c2)CC1 | 1510
38 | CCOc1cc(C(=O)N[C@@H](Cc2ccccc2)[C@H](O)CNCc2cc(OC)cc(OC)c2)cc(N2CCCCS2(=O)=O)c1 | 519
39 | COc1ccc2[nH]c(-c3ccccc3)cc(=NN=Cc3ccncc3)c2c1 | 812
40 | O=C(Nc1ccc(Cl)c(C(F)(F)F)c1)NC1CCN(CCCCCNC(=O)C2CC2c2ccc(Cl)c(Cl)c2)CC1 (stereo not given) | 683
41 | CN(C)c1ccc(CN2CCC(NC(=O)c3ccc(-c4cccc(F)c4)s3)CC2)cc1 | 1490
42 | COc1ccc(OC)c(-c2ccc(=O)n(CC(=O)Nc3cccc4ccccc34)n2)c1 | 901
43 | Cc1cccc2nc(-c3ccc(-c4ccc(CNCCCN5CCCC5=O)cc4)cc3)[nH]c12 | 632
44 | N#Cc1ccc(N2CCN(Cc3cccc(-c4cccc(-c5nc6cc(C(F)(F)F)ccc6[nH]5)c4)c3)CC2)nc1 | 962
45 | COCCCNc1sc(S(=O)(=O)c2ccccc2)nc1S(=O)(=O)c1ccc(C)cc1 | 802
46 | O=C1O[C@H](c2ccccc2)[C@H](c2ccccc2)N(C(=O)OCc2ccccc2)[C@H]1Cc1ccccc1C1CCCC1 | 59.1
47 | CCNc1nc(OCC(F)(F)F)nc(N(c2ccccc2)c2ccccc2)n1 | 472
48 | CCn1c(-c2nonc2N)nc2c(-c3cccc(Cl)c3)ncc(OCCCNCCc3c[nH]cn3)c21 | 983

Row | Structure (SMILES) | XC50 [nM]
49 | COC(=O)c1cccc(CNCc2ccc(-c3cccc(-c4nc5cc(C(F)(F)F)ccc5[nH]4)c3)cc2)c1 | 156
50 | CC(C)(C)C(=O)N1CCN(c2ccc([N+](=O)[O-])c(NC3CC3)c2)CC1 | 941
51 | O=C(Nc1cccc(CN2CCCN(Cc3ccc4c(c3)OCO4)CC2)c1)c1ccc(-c2ccccc2)cc1 | 652
52 | Cc1cc(Nc2ccccc2)nc(Nc2ccccc2)n1 | 799
53 | FC(F)(F)c1cccc(Nc2nc(-n3ccnc3)nc(-n3ccnc3)n2)c1 | 724
54 | COc1cc(-c2nc(-c3ccccc3)c(-c3ccccc3)[nH]2)ccc1OCCN(C)C | 303
55 | O=C(/C=C/c1ccc2ccccc2c1)NCCCCCN1CCC(c2c[nH]c3ccccc23)CC1 | 1220
56 | Clc1ccccc1C=NN=c1cc[nH]c2ccccc12 | 850
57 | COc1cccc2cc(C(=O)N[C@@H](CC(C)C)C(=O)N[C@H](C=NN(C)C(=O)OC(C)(C)C)Cc3ccccc3)oc12 | 262
58 | Cc1ccc(-c2ccn(Cc3cccc(OCc4ccccc4)c3)n2)cn1.Cc1ccc(-c2ccnn2Cc2cccc(OCc3ccccc3)c2)cn1 | 1180
59 | O=C(c1ccco1)c1cn(CCOc2ccccc2)c2ccccc12 | 748
60 | Cc1ccc(O)c(Nc2c3c(c(C#N)c4nc5ccccc5n24)CCC3)c1 | 1250
61 | CC(C)Cc1nc(N)nc(N)c1-c1ccc(Cl)cc1 | 145
62 | O=C(/C=C/c1ccc(Cl)c(Cl)c1)N1CCC(CN2CCC(Cc3c[nH]c4ccccc34)CC2)CC1 | 674
63 | Cc1n[nH]c2ccc(-c3cc(OC[C@@H](N)Cc4ccccc4)cnc3-c3cc4ccccc4s3)cc12 | 810
64 | CC[C@H]1CN2CC[C@@H]1C[C@H]2[C@H](O)c1cc(N2CCC(C)CC2)nc2ccc(OC)cc12 | 172
65 | COc1ccc2ncc(OC)c(CCN3CC[C@@H](NCc4ccc5c(n4)NC(=O)CS5)[C@H](O)C3)c2n1 | 831
66 | O=S(=O)(Nc1cccc(F)c1CNCc1ccccn1)c1ccc(Cl)c(Cl)c1 | 889
67 | COc1ccc2nccc([C@@H](O)CN3CCC(NC(=O)c4nc(Cl)c(Cl)c(N)c4Cl)CC3)c2c1 | 1300
68 | CCCCCCN1CCC(NCc2ccc(C(F)(F)F)cc2)CC1 | 375
69 | COC(=O)c1ccc(NC(=O)Nc2cccc(CCNCc3ccccc3)c2)cc1 | 867
70 | COc1cc(F)c2ncc(C#N)c(CCN3CCC(NCc4ccc5c(c4)OCCO5)CC3)c2c1 | 428
